Experimental data reported in patent US11090271B2, “Soft gelatin capsules containing hydroxypropyl beta cyclodextrin with high stability” (ALTERGON S.A., priority 2017, dated 2021).

Tests used:
[1] = Storage stability of aqueous diclofenac solutions complexed with HPBCD (colour); format: physicochemical
Description: Occasionally the complexation in cyclodextrin has been carried out to protect the active ingredients from degradation phenomena, however with modest results (International Journal of Photoenergy, 3, 2001, 205-211). […] Finally, storage stability tests were carried out with various aqueous solutions of diclofenac sodium entirely complexed with hydroxypropyl beta ciclodextrin (HPBCD), having the following composition: diclofenac sodium 40.6 mg; HPBCD 177.6 mg; purified water 782.4 mg.

[2] = Water solubility of the active ingredient at room temperature; format: physicochemical; settings: room temperature (20° C.)
Description: In a further embodiment, the active ingredient is a water-soluble one, i.e. it has a water solubility at room temperature (20° C.) higher than 0.1% w/v, preferably higher than 0.5% w/v, or more preferably higher than 1% w/v. […] According to this embodiment, the present invention is characterized as a soft gelatin capsule having inside a fill comprising a water-soluble active ingredient containing nitrogen, wherein the wall of said capsule comprises hydroxypropyl beta cyclodextrin (HPBCD) in an amount being: (a) less than 10% by weight on the weight of the wall and (b) sub-stoichiometric to form an inclusion complex with the active ingredient present in the fill.

O=C(O)Cc1ccccc1Nc1c(Cl)cccc1Cl [diclofenac sodium]
colour of the solution ([1]; aqueous solution entirely complexed with HPBCD, 18 months at 30° C. and 65% R.H.): evident amber colour

O=C(O)Cc1ccccc1Nc1c(Cl)cccc1Cl [diclofenac]
colour of the solution ([1]; aqueous solution complexed in HPBCD, storage at 25° C.±2° C., 60±5% R.H.): amber colour

diclofenac epolamine [DHEP]
water solubility [2]: about 1.9 % w/v
